IC50 data for 80 compounds are collected here from the Kinase Knowledgebase extract (Sharma et al. 2016).

Bounds are passed on as bounds.

The target of the assay is PIK3CD (Human) (UniProt O00329). Put plainly: Enzyme Assay.
PIK3CD (Human), sequence (O00329 whole entry, looked up): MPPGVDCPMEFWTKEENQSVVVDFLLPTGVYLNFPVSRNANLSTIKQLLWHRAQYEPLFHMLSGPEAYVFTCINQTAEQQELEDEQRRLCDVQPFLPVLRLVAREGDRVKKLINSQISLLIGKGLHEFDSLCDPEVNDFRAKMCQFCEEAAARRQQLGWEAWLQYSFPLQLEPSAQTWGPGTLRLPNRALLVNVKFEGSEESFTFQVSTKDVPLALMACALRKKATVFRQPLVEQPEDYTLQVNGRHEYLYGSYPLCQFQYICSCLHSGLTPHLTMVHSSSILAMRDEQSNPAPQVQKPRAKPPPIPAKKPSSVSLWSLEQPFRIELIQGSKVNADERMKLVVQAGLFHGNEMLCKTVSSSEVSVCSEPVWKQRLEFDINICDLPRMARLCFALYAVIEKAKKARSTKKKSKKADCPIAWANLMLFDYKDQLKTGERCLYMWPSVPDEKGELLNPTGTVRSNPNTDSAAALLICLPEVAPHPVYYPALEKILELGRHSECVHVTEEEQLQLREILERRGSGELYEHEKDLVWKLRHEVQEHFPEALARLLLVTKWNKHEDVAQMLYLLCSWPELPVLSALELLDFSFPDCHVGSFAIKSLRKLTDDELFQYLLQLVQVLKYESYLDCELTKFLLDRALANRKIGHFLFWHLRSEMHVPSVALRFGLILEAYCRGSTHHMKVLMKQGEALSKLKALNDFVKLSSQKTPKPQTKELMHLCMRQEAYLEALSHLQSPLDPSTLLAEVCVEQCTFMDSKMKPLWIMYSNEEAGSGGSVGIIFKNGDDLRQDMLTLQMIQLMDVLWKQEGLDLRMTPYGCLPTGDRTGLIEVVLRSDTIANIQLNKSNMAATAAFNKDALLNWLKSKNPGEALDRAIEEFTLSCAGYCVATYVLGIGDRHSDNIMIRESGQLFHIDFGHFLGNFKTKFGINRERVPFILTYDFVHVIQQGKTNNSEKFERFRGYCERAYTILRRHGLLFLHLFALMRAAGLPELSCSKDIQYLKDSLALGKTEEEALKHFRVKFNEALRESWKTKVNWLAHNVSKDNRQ
What is called IC50 is the concentration that inhibits the measured activity by half. As to `CCn1c(-c2cnc(C)nc2)nc2c(O[C@H]3CCN(C(=O)C4[C@@H](C)[C@@H]4C)C3)ncnc21` (stereo not given in full), the IC50 stood at 13 nM. In other words, the double-digit nanomolar range.

In turn, `CCn1c(-c2cnc(C)nc2)nc2c(O[C@H]3CCN(C(=O)C4CC4C)C3)ncnc21` (stereo not given in full) displayed an IC50 of 1.5 nM.

With `CCn1c(-c2cnc(C)nc2)nc2c(O[C@H]3CCN(C(=O)N4CC(OC)C4)C3)ncnc21`, the half-inhibitory concentration (IC50) is 1.8 nM. The IC50 values of the last two compounds are within 1.5-fold of each other.

Compound `CCn1ncc(-c2nc3c(O[C@H]4CCN(C(=O)c5cc(C(C)C)n[nH]5)C4)ncnc3n2C)c1C` gave an IC50 of 109 nM.

`CCn1ncc(-c2nc3c(O[C@H]4CCN(C(=O)Nc5cccc(C)c5)C4)ncnc3n2C)c1C` had an IC50 of 650 nM.

Take `Cn1c(-c2ccc(-n3cccn3)cc2)nc2c(O[C@H]3CCN(C(=O)OC(C)(C)C)C3)ncnc21`: the IC50 was 30 nM.

As for `CCn1ncc(-c2nc3c(O[C@H]4CCN(C(=O)c5cc(C)n(C)c5C)C4)ncnc3n2C)c1C`, the IC50 was 20 nM. This IC50 lies about 1.5-fold lower than the previous one.

The compound `CCn1ncc(-c2nc3c(O[C@H]4CCN(C(=O)C5CCOCC5)C4)ncnc3n2C)c1C` gave an IC50 of 4.3 nM. Compared with the last compound, the IC50 is about 4.7-fold lower.

Regarding `CCn1ncc(-c2nc3c(O[C@H]4CCN(C(=O)c5ccno5)C4)ncnc3n2C)c1C`, the IC50 is 4.7 nM. The IC50 values of the last two compounds are within 1.5-fold of each other.

As for `CCn1c(-c2cnc(C)nc2C)nc2c(O[C@H]3CCN(C(=O)C4CC4)C3)ncnc21`, the IC50 stood at 44 nM.

Compound `CCC(=O)N1CC[C@H](Oc2ncnc3c2nc(-c2ccc4[nH]ncc4c2)n3C)C1` came in with an IC50 of 44 nM.

Turning to `CCn1c(-c2cnc(C)nc2)nc2c(O[C@@H]3CN(C(=O)OC(C)(C)C)C[C@H]3O)ncnc21.CCn1c(-c2cnc(C)nc2)nc2c(O[C@H]3CN(C(=O)OC(C)(C)C)C[C@@H]3O)ncnc21`, the IC50 stood at 3.7 nM.

`CCC(=O)N1CC[C@H](Oc2ncnc3c2nc(C2=CCOCC2)n3CC)C1` displayed an IC50 of 93 nM.

In the case of `CCC(=O)N1CC[C@H](Oc2ncnc3c2nc(Oc2cc(F)cc(OC)c2)n3C)C1`, the IC50 turned out to be 110 nM.

Take `CCn1ncc(-c2nc3c(S[C@H]4CCN(C(=O)C5CC5)C4)ncnc3n2C)c1C`: the IC50 stood at 3.8 nM.

`CN(C)c1ccc(-c2nc3c(O[C@H]4CCN(C(=O)OC(C)(C)C)C4)ncnc3n2C)cn1` registered an IC50 of 65 nM.

As for `CCC(=O)N1CC[C@H](Oc2ncnc3c2nc(-c2cnn(-c4ccccc4)c2C)n3C)C1`, the IC50 was found to be 3.6 nM.

`CCn1ncc(-c2nc3c(O[C@H]4CCN(C(=O)C5CC(=O)N(C)C5)C4)ncnc3n2C)c1C` (stereo not given in full) registered an IC50 of 30 nM.

`CCC(=O)N1CC[C@H](Oc2ncnc3c2nc(C(F)(F)F)n3C)C1` displayed an IC50 of 430 nM. This IC50 is about 14-fold higher than that of the compound before.

Compound `CCn1ncc(-c2nc3c(O[C@H]4CCN(C(=O)c5nc(C(C)(C)O)no5)C4)ncnc3n2C)c1C` showed an IC50 of 110 nM.

Compound `CCC(=O)N1CC[C@H](Oc2ncnc3c2nc(-c2cnc(C)nc2)n3C)C1` gave an IC50 of 36 nM. This IC50 is about 3.1-fold lower than that of the compound before.

The compound `Cc1ncc(-c2nc3c(O[C@H]4CCN(C(=O)OC(C)(C)C)C4)ncnc3n2C)n1C` came in with an IC50 of 28 nM.

For the compound `CCC(=O)N1CC[C@H](Oc2ncnc3c2nc(-c2ccc(OC)c(C)c2)n3C)C1`, the IC50 amounted to 4.6 nM.

As to `CCn1ncc(-c2nc3c(O[C@H]4CCN(C(=O)c5ccnc(C)c5)C4)ncnc3n2C)c1C`, the IC50 stood at 25 nM. This IC50 is about 5.4-fold higher than that of the compound before.

Compound `CCC(=O)N1CC[C@H](Oc2ncnc3c2nc(-c2cnc(C(C)(C)C)s2)n3CC)C1` registered an IC50 of 2.2 nM.

In the case of `CCn1ncc(-c2nc3c(O[C@H]4CCN(C(=O)c5nnsc5C)C4)ncnc3n2C)c1C`, the IC50 worked out at 5.3 nM.

The compound `CCC(=O)N1CC[C@H](Oc2ncnc3c2nc(-c2cnn(CC)c2C)n3CC(F)F)C1` came in with an IC50 of 3.1 nM.

Take `CCn1ncc(-c2nc3c(OC4CCN(C(=O)c5ccc6ccccc6c5)C4)ncnc3n2C)c1C` (stereo not given): the IC50 was 28 nM.

Compound `CCn1c(-c2cnc(C)nc2)nc2c(O[C@H]3CCN(C(=O)OC(C)(C)C)C3)ncnc21` gave an IC50 of 8.3 nM.

Turning to `CCn1ncc(-c2nc3c(O[C@H]4CCN(C(=O)c5cnoc5C(C)C)C4)ncnc3n2C)c1C`, the IC50 is 41 nM.

`CCC(=O)N1CC[C@H](Oc2ncnc3c2nc(-c2cnc(C)nc2)n3CC)C1` returned an IC50 of 13 nM.

In the case of `CCn1ncc(-c2nc3c(O[C@H]4CCN(C(C)=O)C4)ncnc3n2C)c1C`, the IC50 amounted to 56 nM.

For the compound `CCn1c(-c2cnc(C)nc2)nc2c(O[C@@H]3CN(C(=O)OC(C)(C)C)C[C@H]3F)ncnc21.CCn1c(-c2cnc(C)nc2)nc2c(O[C@H]3CN(C(=O)OC(C)(C)C)C[C@@H]3F)ncnc21`, the IC50 was 3.3 nM.

As to `CCn1ncc(-c2nc3c(OC4CN(C(=O)OC(C)(C)C)C4)ncnc3n2C)c1C`, the IC50 was 85 nM.

In the case of `CCn1ncc(-c2nc3c(O[C@H]4CCN(C(=O)Oc5cccc(C(F)(F)F)c5)C4)ncnc3n2C)c1C`, the IC50 came to 300 nM.

For `CCn1ncc(-c2nc3c(O[C@H]4CCN(C(=O)c5ccccn5)C4)ncnc3n2C)c1C`, the IC50 was determined as 27 nM.

As for `CCn1c(-c2cnc(C)nc2)nc2c(O[C@H]3CCN(C(=O)N4CC(C)(OC)C4)C3)ncnc21`, the IC50 amounted to 34 nM. This IC50 and that of the compound before are within 1.5-fold of each other.

Turning to `CCn1c(-c2cnc(OC)c(C)c2)nc2c(O[C@H]3CCN(C(=O)C4CC4)C3)ncnc21`, the IC50 is less than 1 nM.

In turn, `CCn1ncc(-c2nc3c(O[C@H]4CCN(c5ncnc6sccc56)C4)ncnc3n2C)c1C` came in with an IC50 of 5.7 nM.

`CCn1ncc(-c2nc3c(O[C@H]4CCN(C(=O)N[C@H](C)c5ccccc5)C4)ncnc3n2C)c1C` displayed an IC50 of 630 nM.

Take `CCn1c(-c2cnc(C)nc2)nc2c(O[C@H]3CCN(C(=O)N4CCC(CO)C4)C3)ncnc21` (stereo not given in full): the IC50 was determined as 9.5 nM.

`CCn1ncc(-c2nc3c(O[C@H]4CCN(C(=O)c5cnn(C)c5)C4)ncnc3n2C)c1C`: the IC50 stood at 14 nM. This IC50 and that of the compound before are within 1.5-fold of each other.

`CCn1ncc(-c2nc3c(O[C@H]4CCN(C(=O)OCC(C)C)C4)ncnc3n2C)c1C` returned an IC50 of 17 nM.

Take `CCn1ncc(-c2nc3c(O[C@H]4CCN(C(=O)c5nnc6n5CCCC6)C4)ncnc3n2C)c1C`: the IC50 was determined as 240 nM.

Consider `CCn1ncc(-c2nc3c(O[C@H]4CCN(S(=O)(=O)CC)C4)ncnc3n2C)c1C`, for which the IC50 is 200 nM.

In turn, `CCOC(=O)N1CC[C@H](Oc2ncnc3c2nc(-c2cnn(CC)c2C)n3C)C1` showed an IC50 of 33 nM.

`CCn1ncc(-c2nc3c(O[C@H]4CCN(C(=O)c5cc6occc6[nH]5)C4)ncnc3n2C)c1C` displayed an IC50 of 210 nM. This IC50 lies about 6.4-fold higher than the previous one.

`CCn1ncc(-c2nc3c(S(=O)(=O)[C@H]4CCN(C(=O)OC(C)(C)C)C4)ncnc3n2C)c1C` yielded an IC50 of 160 nM. The IC50 values of the last two compounds are within 1.5-fold of each other.

In the case of `CCn1ncc(-c2nc3c(S[C@H]4CCN(C(=O)C5CCOCC5)C4)ncnc3n2C)c1C`, the IC50 stood at 18 nM. Against the preceding compound, the IC50 is about 8.9-fold lower.

`CCn1ncc(-c2nc3c(O[C@H]4CCN(S(=O)(=O)c5ccccc5)C4)ncnc3n2C)c1C` yielded an IC50 of 360 nM.

Take `CCC(=O)N1CC[C@H](Oc2ncnc3c2nc(-c2ccc(C(F)(F)F)nc2)n3C)C1`: the IC50 was 99 nM. This IC50 lies about 3.6-fold lower than the previous one.

`CCC(=O)N1CC[C@H](Oc2ncnc3c2nc(-c2cc(F)cc(NS(C)(=O)=O)c2)n3C)C1` registered an IC50 of 10 nM.

In turn, `CCn1ncc(-c2nc3c(O[C@H]4CCN(C(=O)c5cn6cccnc6n5)C4)ncnc3n2C)c1C` came in with an IC50 of 100 nM.

Turning to `CCn1c(N(C)CCO)nc2c(O[C@H]3CCN(C(=O)OC(C)(C)C)C3)ncnc21`, the IC50 was 830 nM. This IC50 lies about 8.3-fold higher than the previous one.

In turn, `CCC(=O)N1CC[C@H](Oc2ncnc3c2nc(CC(C)C)n3CC)C1` had an IC50 of 240 nM.

`CCn1ncc(-c2nc3c(O[C@H]4CCN(C(=O)c5cn[nH]c5)C4)ncnc3n2C)c1C`: the IC50 was 16 nM.

Consider `CCn1c(N2CCC(C)C2)nc2c(O[C@H]3CCN(C(=O)OC(C)(C)C)C3)ncnc21` (stereo not given in full), for which the IC50 came out at 570 nM.

The compound `CCn1c(-c2cnc(C)nc2)nc2c(O[C@H]3CCN(C(=O)C4(N)CCC4)C3)ncnc21` yielded an IC50 of 50 nM.

`CCn1c(-c2cnc(C)nc2)nc2c(O[C@H]3CCN(C(=O)C4CC4)C3)ncnc21`: the IC50 was found to be 2.8 nM.

Regarding `CCn1ncc(-c2nc3c(O[C@H]4CCN(S(=O)(=O)C(F)(F)F)C4)ncnc3n2C)c1C`, the IC50 worked out at 1000 nM.

With `CCn1c(-c2cnc(C)nc2)nc2c(O[C@H]3CCN(C(=O)N4CCC(C)(C)C4)C3)ncnc21`, the IC50 is 3.8 nM.

`CCn1c(-c2cnc(C)nc2)nc2c(O[C@H]3CCN(C(=O)CC(C)(C)N)C3)ncnc21` returned an IC50 of 9.3 nM.

In turn, `CCC(=O)N1CC[C@H](Oc2ncnc3c2nc(-c2ccc(S(C)(=O)=O)cc2)n3C)C1` had an IC50 of 300 nM.

Take `CCn1ncc(-c2nc3c(O[C@H]4CCN(c5nccc(-c6ccco6)n5)C4)ncnc3n2C)c1C`: the IC50 came out at 128 nM. Compared with the last compound, the IC50 is about 2.3-fold lower.

`CCn1c(-c2ccc(OC)cn2)nc2c(O[C@H]3CCN(C(=O)C4CC4)C3)ncnc21` had an IC50 of 240 nM.

As for `CCn1ncc(-c2nc3c(O[C@@H]4CCCN(C(=O)OC(C)(C)C)C4)ncnc3n2C)c1C`, the IC50 turned out to be 4600 nM.

Consider `CC[C@@H]1CN(C(=O)OCc2ccccc2)C[C@H]1Oc1ncnc2c1nc(-c1cnc(C)nc1)n2CC.CC[C@H]1CN(C(=O)OCc2ccccc2)C[C@@H]1Oc1ncnc2c1nc(-c1cnc(C)nc1)n2CC`, for which the IC50 amounted to 90 nM. This IC50 is about 51-fold lower than that of the compound before.

As to `CCn1c(-c2cnc(C)nc2)nc2c(O[C@H]3CCN(C(=O)OC(C)(C)C)[C@@H]3C)ncnc21`, the IC50 is 4 nM. Compared with the last compound, the IC50 is about 22-fold lower.

`CCn1ncc(-c2nc3c(O[C@H]4CCN(c5nccc6sccc56)C4)ncnc3n2C)c1C`: the IC50 was 10 nM.

`CCC(=O)N1CC[C@H](Oc2ncnc3c2nc(-c2cnc(OC)c(NS(C)(=O)=O)c2)n3C)C1`: the IC50 was found to be 2 nM.

In turn, `CCC(=O)N1CC[C@H](Oc2ncnc3c2nc(-c2cnc4[nH]ccc4c2)n3C)C1` gave an IC50 of 19 nM.

Regarding `CCn1ncc(-c2nc3c(O[C@H]4CCN(C(=O)NC5CCCCC5)C4)ncnc3n2C)c1C`, the IC50 is 230 nM.

As to `Cc1nn(C)cc1-c1nc2c(O[C@H]3CCN(C(=O)OC(C)(C)C)C3)ncnc2n1C`, the IC50 was 1200 nM.

For the compound `CCn1ncc(-c2nc3c(O[C@H]4CCNC4)ncnc3n2C)c1C`, the IC50 worked out at 2100 nM. This IC50 lies about 1.8-fold higher than the previous one.

`CCC(=O)N1CC[C@H](Oc2ncnc3c2nc(I)n3C)C1` came in with an IC50 of 140 nM.

The compound `CCC(=O)N1CC[C@H](Oc2ncnc3c2nc(-c2ccc4cc[nH]c4c2)n3C)C1` had an IC50 of 120 nM.

Compound `CCn1ncc(-c2nc3c(O[C@H]4CCN(C(=O)c5ccnn5C)C4)ncnc3n2C)c1C` came in with an IC50 of 22 nM.

For `CCn1ncc(-c2nc3c(O[C@H]4CCN(C(=O)c5cocn5)C4)ncnc3n2C)c1C`, the IC50 stood at 19 nM.

In the case of `CCn1c(N(C)CC(C)C)nc2c(O[C@H]3CCN(C(=O)OC(C)(C)C)C3)ncnc21`, the IC50 amounted to 150 nM.

Consider `CCn1ncc(-c2nc3c(O[C@H]4CCN(c5ncccn5)C4)ncnc3n2C)c1C`, for which the IC50 stood at 21 nM.
